Assay results reported in ChEMBL document CHEMBL1201862, “PubChem BioAssay data set” (2004).
Active and inactive are the calls of the source.

Legend:
[1] = target: Heat shock protein HSP 90-alpha (Homo sapiens, UniProt P07900); format: functional, organism-based
[2] = viability of HCT116 lacking mutant beta-catenin – cell-based, human colon tumor, dose response (AID 1045); format: functional;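 further: HCT116 colon tumor cells with beta catenin knocked out; cells exposed to compound for 60 hours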
[3] = viability of PTEN-deleted HCT116 cells – cell-based, HCT116 PTEN knockout, dose response (AID 1047); format: functional;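 further: HCT116 colon tumor cells with PTEN knocked out; cells exposed to compound for 60 hours before readout; potency for loss of cell viability measured by luminescence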
Fatty acid synthase [4] = target: T1, Fatty acid synthase (Homo sapiens, UniProt P49327); assay: inhibition of human FAS-TE enzyme activity – biochemical, endpoint fluorescence intensity, uHTS hits, dose response (AID 624327); format: functional;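 further: fluorescence from hydrolysis of an O-methyl fluorescein acyl ester substrate by the enzyme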
T1 sequence (P49327 whole entry): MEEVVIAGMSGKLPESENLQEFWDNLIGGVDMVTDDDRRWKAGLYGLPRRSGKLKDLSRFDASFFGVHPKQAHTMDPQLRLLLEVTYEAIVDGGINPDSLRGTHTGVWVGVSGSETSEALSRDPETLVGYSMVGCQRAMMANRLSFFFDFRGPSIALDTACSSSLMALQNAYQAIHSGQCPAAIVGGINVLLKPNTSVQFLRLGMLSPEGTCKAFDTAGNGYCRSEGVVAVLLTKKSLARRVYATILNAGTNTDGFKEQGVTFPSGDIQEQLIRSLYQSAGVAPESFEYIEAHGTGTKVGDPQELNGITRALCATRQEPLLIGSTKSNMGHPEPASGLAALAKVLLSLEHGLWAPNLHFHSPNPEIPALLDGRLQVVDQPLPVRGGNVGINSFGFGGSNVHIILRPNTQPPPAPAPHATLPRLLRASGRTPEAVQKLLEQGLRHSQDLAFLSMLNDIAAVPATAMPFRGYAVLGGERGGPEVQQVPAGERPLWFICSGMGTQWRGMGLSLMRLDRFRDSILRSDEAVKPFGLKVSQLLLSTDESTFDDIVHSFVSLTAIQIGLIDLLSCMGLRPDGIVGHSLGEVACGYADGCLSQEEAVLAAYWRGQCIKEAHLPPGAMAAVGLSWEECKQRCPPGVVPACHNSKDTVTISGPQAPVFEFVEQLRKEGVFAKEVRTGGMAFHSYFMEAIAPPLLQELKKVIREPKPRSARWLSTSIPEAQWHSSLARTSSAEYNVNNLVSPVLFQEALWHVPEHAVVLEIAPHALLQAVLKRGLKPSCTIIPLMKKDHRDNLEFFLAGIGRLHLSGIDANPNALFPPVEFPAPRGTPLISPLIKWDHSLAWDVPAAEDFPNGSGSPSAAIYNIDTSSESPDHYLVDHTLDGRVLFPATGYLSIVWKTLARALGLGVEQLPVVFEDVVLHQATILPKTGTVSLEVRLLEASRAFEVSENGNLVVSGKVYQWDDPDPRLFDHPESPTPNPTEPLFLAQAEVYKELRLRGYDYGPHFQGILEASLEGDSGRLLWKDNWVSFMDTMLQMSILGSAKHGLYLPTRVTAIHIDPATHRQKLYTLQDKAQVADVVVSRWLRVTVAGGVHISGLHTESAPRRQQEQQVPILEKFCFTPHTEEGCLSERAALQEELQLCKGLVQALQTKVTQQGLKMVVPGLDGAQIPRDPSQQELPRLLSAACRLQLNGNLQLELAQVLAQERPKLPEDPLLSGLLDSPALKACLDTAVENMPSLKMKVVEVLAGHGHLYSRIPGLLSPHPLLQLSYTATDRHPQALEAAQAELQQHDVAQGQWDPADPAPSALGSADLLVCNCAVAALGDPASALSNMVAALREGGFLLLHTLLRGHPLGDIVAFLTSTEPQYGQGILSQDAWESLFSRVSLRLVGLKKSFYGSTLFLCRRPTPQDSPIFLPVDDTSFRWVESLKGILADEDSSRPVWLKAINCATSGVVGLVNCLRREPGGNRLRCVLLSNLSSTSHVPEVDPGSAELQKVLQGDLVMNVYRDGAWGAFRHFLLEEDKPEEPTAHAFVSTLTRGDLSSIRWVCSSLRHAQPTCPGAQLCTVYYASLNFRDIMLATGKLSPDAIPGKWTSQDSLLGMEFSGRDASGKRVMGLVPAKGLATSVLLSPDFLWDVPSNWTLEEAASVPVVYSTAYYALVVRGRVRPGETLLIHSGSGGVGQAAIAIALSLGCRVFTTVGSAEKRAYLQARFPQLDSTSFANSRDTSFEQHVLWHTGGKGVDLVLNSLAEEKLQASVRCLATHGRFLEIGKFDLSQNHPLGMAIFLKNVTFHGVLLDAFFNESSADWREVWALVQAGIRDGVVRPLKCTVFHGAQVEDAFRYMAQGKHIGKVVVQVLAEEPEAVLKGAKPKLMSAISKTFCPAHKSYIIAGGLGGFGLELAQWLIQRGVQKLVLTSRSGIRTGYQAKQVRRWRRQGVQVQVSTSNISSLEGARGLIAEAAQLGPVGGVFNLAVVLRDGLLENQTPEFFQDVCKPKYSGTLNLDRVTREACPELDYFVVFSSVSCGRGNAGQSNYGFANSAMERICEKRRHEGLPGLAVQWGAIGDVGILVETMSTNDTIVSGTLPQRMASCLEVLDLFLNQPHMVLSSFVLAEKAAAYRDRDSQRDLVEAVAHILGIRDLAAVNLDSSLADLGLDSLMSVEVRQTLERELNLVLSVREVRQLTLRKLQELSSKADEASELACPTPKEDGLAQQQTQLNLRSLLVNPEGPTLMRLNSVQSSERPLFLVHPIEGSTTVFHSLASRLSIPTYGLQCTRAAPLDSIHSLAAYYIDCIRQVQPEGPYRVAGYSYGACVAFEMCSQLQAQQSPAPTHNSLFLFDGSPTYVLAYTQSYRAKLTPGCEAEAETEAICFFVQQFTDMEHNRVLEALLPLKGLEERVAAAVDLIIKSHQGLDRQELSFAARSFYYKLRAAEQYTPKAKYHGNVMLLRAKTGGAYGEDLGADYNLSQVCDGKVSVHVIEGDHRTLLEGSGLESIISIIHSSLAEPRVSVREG

Fatty acid synthase [5] = target: T1, Fatty acid synthase; assay: inhibition of human FAS-TE enzyme activity – biochemical, kinetic fluorescence intensity, dose response (AID 624326); format: functional;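 further: rate of fluorescence rise from hydrolysis of a fluorogenic O-methyl fluorescein ester substrate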
[6] = Luminescence Cell-Based Dose Confirmation HTS to Identify Inhibitors of Platelet Dense Granule Release. [Related pubchem assays: 1663 (Primary HTS), 1678 (Summary of Project)]; format: functional
[7] = target: Luciferin 4-monooxygenase (Photinus pyralis, UniProt P08659); assay: inhibition of purified Photinus pyralis luciferase – biochemical, luminescence, dose response (AID 1891)
Luciferin 4-monooxygenase, sequence (P08659 whole entry): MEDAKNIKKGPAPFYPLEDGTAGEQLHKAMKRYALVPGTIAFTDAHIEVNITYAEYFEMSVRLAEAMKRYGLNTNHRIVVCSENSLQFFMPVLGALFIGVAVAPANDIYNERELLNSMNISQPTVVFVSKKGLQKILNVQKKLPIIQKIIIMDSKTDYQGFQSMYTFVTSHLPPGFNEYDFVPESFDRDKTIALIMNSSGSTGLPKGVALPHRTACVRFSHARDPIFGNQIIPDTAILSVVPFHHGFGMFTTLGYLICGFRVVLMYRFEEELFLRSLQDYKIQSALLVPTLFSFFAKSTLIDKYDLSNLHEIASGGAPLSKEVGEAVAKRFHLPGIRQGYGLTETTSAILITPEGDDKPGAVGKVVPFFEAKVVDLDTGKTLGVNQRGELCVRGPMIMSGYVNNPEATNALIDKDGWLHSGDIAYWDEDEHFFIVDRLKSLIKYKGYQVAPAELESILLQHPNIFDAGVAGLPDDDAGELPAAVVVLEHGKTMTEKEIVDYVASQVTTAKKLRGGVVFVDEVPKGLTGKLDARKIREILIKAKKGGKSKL

H4 = assay: Luminescence Cell-Based Dose Response HTS to Identify Activators of 5'UTR Stem-Loop Driven Prion Protein mRNA Translation in H4 Neuroglioblastoma Cells. [Related pubchem assays: 1829 (Project Summary), 1814 (Primary HTS)]; format: functional; settings: Homo sapiens
[8] = Luminescence Cell-Based Dose Response HTS to Identify Activators of Luciferase Translation or Activity in H4 […] Cells. [Related pubchem assays: 1829 (Project Summary), 1814 (Primary HTS)]; format: functional
[9] = Luminescence Cell-Based Dose Confirmation HTS to Identify Activators of 5'UTR Stem-Loop Driven Alpha-Synuclein mRNA Translation in H4 Neuroglioblastoma Cells. [Related pubchem assays: 1829 (Project Summary), 1814 (Primary HTS)]; format: functional
[10] = target: FAD-linked sulfhydryl oxidase ALR (Homo sapiens, UniProt P55789); assay: ALR-catalysed DTT oxidation blockers – biochemical, H2O2 detection, luminescence, cherry-pick, dose response (AID 493248)
FAD-linked sulfhydryl oxidase ALR, sequence (P55789 whole entry): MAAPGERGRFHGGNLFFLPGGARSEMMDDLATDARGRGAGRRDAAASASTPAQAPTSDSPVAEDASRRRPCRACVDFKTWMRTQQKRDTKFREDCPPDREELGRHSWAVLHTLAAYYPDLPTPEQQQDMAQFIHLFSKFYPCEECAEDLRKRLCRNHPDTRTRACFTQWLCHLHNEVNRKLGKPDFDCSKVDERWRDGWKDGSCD

Cytochrome P450 2C9 = Cytochrome P450 2C9 (Homo sapiens, UniProt P11712)
Cytochrome P450 2C9, sequence (P11712 whole entry): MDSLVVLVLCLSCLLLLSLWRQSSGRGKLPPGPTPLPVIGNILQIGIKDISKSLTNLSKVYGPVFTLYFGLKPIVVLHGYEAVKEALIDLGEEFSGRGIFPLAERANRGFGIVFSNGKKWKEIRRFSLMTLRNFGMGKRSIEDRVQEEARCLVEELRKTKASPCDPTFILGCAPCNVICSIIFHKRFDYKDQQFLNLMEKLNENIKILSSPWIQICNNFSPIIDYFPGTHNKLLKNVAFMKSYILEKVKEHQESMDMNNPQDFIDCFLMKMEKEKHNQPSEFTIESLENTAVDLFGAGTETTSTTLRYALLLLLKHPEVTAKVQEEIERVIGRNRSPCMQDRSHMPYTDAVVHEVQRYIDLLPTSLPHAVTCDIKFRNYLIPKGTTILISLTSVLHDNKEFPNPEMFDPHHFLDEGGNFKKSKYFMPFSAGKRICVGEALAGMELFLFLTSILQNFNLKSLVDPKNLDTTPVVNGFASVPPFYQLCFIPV

Cytochrome P450 3A4 = Cytochrome P450 3A4 (Homo sapiens, UniProt P08684);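 further: CYP3A4 tested as one member of a cytochrome P450 panel screen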
Cytochrome P450 3A4, sequence (P08684 whole entry): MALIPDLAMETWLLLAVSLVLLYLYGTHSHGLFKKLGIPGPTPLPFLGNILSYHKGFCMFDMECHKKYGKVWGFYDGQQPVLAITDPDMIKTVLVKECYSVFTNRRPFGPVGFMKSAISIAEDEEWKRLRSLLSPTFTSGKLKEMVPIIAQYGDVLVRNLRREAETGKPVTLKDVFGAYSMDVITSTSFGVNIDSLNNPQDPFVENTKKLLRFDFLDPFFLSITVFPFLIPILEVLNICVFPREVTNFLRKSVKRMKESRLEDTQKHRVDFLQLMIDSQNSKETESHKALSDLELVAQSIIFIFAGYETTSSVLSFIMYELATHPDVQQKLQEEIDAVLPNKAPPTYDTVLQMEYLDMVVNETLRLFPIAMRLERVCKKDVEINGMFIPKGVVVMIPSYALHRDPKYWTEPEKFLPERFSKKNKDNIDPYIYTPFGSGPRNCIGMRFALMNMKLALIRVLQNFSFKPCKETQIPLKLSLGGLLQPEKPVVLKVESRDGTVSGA

Cytochrome P450 1A2 = target: T2, Cytochrome P450 1A2 (Homo sapiens, UniProt P05177);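 further: PubChem cytochrome P450 panel assay, CYP1A2 panel member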
T2 sequence (P05177 whole entry): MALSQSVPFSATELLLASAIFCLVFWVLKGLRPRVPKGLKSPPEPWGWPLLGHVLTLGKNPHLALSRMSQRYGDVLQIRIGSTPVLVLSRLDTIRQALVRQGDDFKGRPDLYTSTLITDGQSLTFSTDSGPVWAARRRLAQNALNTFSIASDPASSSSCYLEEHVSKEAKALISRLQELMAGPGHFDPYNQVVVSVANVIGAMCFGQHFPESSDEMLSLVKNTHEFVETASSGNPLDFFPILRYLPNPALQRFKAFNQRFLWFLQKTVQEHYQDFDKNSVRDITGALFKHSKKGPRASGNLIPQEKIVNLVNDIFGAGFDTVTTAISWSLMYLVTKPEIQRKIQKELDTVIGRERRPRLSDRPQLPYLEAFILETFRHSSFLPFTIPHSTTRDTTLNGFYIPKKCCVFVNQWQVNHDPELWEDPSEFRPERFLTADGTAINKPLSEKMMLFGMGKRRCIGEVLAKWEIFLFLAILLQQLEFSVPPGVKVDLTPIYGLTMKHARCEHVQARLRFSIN

Cytochrome P450 2C19 = Cytochrome P450 2C19 (Homo sapiens, UniProt P33261); assay: Cytochrome panel assay with activity outcomes. Panel member name: p450-cyp2c19 Compounds with AC50 equal or less than 10 uM are considered active; format: functional; settings: read-out: AC50
Cytochrome P450 2C19, sequence (P33261 whole entry): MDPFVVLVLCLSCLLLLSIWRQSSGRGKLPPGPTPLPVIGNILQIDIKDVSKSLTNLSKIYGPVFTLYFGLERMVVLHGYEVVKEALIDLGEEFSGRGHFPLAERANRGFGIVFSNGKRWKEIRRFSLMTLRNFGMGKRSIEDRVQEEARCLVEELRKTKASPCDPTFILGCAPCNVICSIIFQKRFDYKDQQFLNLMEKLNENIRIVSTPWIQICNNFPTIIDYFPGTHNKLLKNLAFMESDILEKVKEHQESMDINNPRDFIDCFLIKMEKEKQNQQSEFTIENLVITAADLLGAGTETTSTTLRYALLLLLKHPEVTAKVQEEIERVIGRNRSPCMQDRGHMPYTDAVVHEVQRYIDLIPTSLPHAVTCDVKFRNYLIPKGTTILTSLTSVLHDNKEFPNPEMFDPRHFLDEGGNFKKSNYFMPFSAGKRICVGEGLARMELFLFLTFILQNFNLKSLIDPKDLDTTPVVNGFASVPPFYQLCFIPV

BJ [11] = assay: BJ-TERT-LT-ST fibroblast viability loss – cell-based, RAS-independent, luminescence, dose response (AID 1935); format: functional; settings: Homo sapiens;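 further: BJ fibroblasts immortalized with TERT plus LT and ST oncogenes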
[12] = NIH-3T3 fibroblast cytotoxicity, dose response, cytotoxicity control, cell-based, fluorescence, Alamar Blue, secondary assay (AID 2327); format: functional;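 further: NIH-3T3 mouse fibroblasts cultured with fluconazole at 8 µg/mL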
[13] = DRD fibroblast viability loss – cell-based, non-viral oncogenic, luminescence, dose response (AID 1934); format: functional; settings: Homo sapiens
BJ [14] = assay: BJ-TERT fibroblast viability loss – cell-based, RAS-independent, luminescence, dose response (AID 1933); format: functional; settings: Homo sapiens
BJ [15] = assay: cells; format: functional, cell-based; settings: Homo sapiens

With `CCN1C/C(=C\c2cccc([N+](=O)[O-])c2)C(=O)/C(=C/c2cccc([N+](=O)[O-])c2)C1` the AC50 [1] was 8.11 µM (active), the EC50 [2] was 0.187 µM (active) and the EC50 [3] was 0.117 µM (active).

For `O=S(=O)(Nc1ccc2c(c1)OCCO2)c1ccc2oc3ccccc3c2c1`, the IC50 (Fatty acid synthase [4]) was 8 µM (active) and the IC50 (Fatty acid synthase [5]) was 7.42 µM (active).

With `CC(NC(=O)c1ccc([N+](=O)[O-])cc1Cl)C1CC2CCC1C2` (stereo unspecified) the IC50 (Fatty acid synthase [4]) was 9.39 µM (active) and the IC50 (Fatty acid synthase [5]) was 11.1 µM (active).

In the case of `O=C(Nc1ccccc1)c1cccc(N2CCCC2=O)c1`, the EC50 [6] is reported as 45.5 µM (active) and the EC50 [7] is reported as > 112 µM (not active).

With `Cc1nc2ccccc2[nH]c(=O)c1=NNc1ccccc1` the EC50 (H4) was 19 µM (active), the EC50 [8] was > 120 µM (not active) and the EC50 [9] was 24.1 µM (active).

In the case of `Cc1ccc(OCCC(=O)OCc2csc(CC(=O)Nc3ccccc3C)n2)cc1`, the EC50 [6] is reported as > 112 µM (not active) and the EC50 [7] is reported as > 112 µM (not active).

In the case of `O=C(Cn1cc([N+](=O)[O-])cn1)N1CCc2ccccc2C1`, the IC50 (Fatty acid synthase [4]) is reported as 11.1 µM (active) and the IC50 (Fatty acid synthase [5]) is reported as 7.62 µM (active).

For `COc1cccc(C(=O)Nc2ccccc2N2CCCC2)c1`, the AC50 [10] was 1.54 µM (active).

With `CCN(CC)c1ccc(NC(=O)C2CCCN(S(=O)(=O)c3cccnc3)C2)c(C)c1` (stereo unspecified) the AC50 [10] was 2.3 µM (active).

With `COC(=O)c1ccc(CSc2nc3cc(C)ccc3[nH]2)o1` the AC50 [10] was 2.71 µM (active).

In the case of `COC(=O)c1sc(-c2ccccc2)cc1NC(=O)c1cc(OC)cc(OC)c1`, the EC50 [2] is reported as 21.7 µM (active) and the EC50 [3] is reported as 25.3 µM (active).

With `Cc1ccc(C(=O)NC(=S)Nc2cc(-c3nc4ccccc4s3)ccc2C)cc1` the AC50 (Cytochrome P450 2C9) was 1.78 µM (inconclusive), the AC50 (Cytochrome P450 3A4) was 10 µM (inconclusive) and the EC50 [2] was 22 µM (active). The EC50 [3] was 26.9 µM (active).

With `CN1CCN(C(=O)c2ccc(COc3ccc(C(C)(C)C)cc3)o2)CC1` the EC50 (H4) was 35.2 µM (active), the EC50 [8] was 0.148 µM (inconclusive) and the AC50 (Cytochrome P450 2C9) was 31.6 µM (inconclusive). For the same molecule, the AC50 (Cytochrome P450 1A2) was 12.6 µM (inconclusive), the EC50 [9] was 4.82 µM (active) and the AC50 (Cytochrome P450 2C19) was 25.1 µM (inconclusive).

In the case of `O=C(/C=C/c1ccc(-c2ccccc2[N+](=O)[O-])o1)c1ccccc1`, the EC50 [2] is reported as 22.3 µM (active) and the EC50 [3] is reported as 22.5 µM (active).

For `c1ccc(CSc2nnc(Cc3ccccc3)o2)cc1`, the EC50 (H4) was > 120 µM (not active), the EC50 [8] was 16.8 µM (active) and the EC50 [9] was 14.4 µM (active).

With `N=c1n(CCO)c2ccccc2n1CCOc1ccc(Cl)cc1Cl` the EC50 [2] was 8.45 µM (active) and the EC50 [3] was 8.23 µM (active).

For `O=C(NCc1ccc(C(F)(F)F)cc1)C1CC(c2c(Cl)cccc2Cl)=NO1` (stereo unspecified), the IC50 (Fatty acid synthase [4]) was 10.3 µM (active) and the IC50 (Fatty acid synthase [5]) was 9.63 µM (active).

For `COc1ccc2c(c1)NP(=S)(Oc1ccccc1)N2` (stereo unspecified), the AC50 [10] was 2.02 µM (active).

With `CC1CC(Nc2ccccc2)c2ccccc2N1C(=O)c1ccco1` (stereo unspecified) the AC50 [10] was 21.1 µM (active).

In the case of `Cc1cc(/C=C2\SC(N)=NC2=O)c(C)n1-c1ccccc1`, the EC50 (H4) is reported as > 120 µM (not active), the EC50 [8] is reported as 0.143 µM (active) and the EC50 [9] is reported as 0.167 µM (active).

In the case of `COc1ccc(N2CCN(C(CNS(C)(=O)=O)c3ccco3)CC2)cc1` (stereo unspecified), the AC50 [10] is reported as 4.67 µM (active).

In the case of `O=C1C2CCN(CC2)C1Cc1ccc(OCCOc2ccccc2)cc1` (stereo unspecified), the EC50 (BJ [11]) is reported as > 150 µM (not active), the EC50 [12] is reported as 30.6 µM (active) and the EC50 [13] is reported as > 150 µM (not active). The EC50 (BJ [14]) was > 150 µM (not active) and the EC50 (BJ [15]) was > 150 µM (not active).
